In patent US6794377B2, “Ortho, ortho-substituted nitrogen-containing bisaryl compounds, processes for their preparation, their use as medicaments, and pharmaceutical preparation comprising them” (Aventis Pharma Deutschland GmbH, priority 2000, dated 2004) one finds IC50 data, which are given here for 50 compounds.

T1 sequence (P22460 whole entry): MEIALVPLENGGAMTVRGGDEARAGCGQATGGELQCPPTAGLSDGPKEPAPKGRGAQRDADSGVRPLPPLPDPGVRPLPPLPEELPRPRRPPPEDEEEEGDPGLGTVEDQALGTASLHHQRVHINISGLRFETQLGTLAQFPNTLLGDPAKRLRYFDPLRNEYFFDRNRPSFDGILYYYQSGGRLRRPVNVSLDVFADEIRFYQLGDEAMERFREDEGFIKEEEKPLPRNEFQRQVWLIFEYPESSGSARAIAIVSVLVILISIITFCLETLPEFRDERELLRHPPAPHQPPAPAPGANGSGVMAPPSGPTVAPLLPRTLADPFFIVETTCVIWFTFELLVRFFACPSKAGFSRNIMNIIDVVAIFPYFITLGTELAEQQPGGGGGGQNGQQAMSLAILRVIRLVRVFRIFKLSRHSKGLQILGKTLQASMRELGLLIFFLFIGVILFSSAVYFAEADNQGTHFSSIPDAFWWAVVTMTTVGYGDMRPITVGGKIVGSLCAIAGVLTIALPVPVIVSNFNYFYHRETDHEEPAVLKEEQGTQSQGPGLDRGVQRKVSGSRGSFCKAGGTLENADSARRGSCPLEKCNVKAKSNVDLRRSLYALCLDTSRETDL

One experiment has as its target T1, Kv1.5 channels from humans (Homo sapiens, UniProt P22460).
T1 construct: expressed in transfected cells; host or cells: Xenopus laevis oocytes injected with in vitro synthesized RNA
Description: Kv1.5 currents in Xenopus oocytes, 2-microelectrode voltage clamp. The experiment is classed as cell-based. The following applies: human Kv1.5 expressed in Xenopus laevis oocytes; voltage jumps to 0 mV and 40 mV lasting 500 ms; room temperature; Hill equation. Here is the method: Kv1.5 channels from humans were expressed in Xenopus oocytes. To this end, oocytes from Xenopus laevis were first isolated and defolliculated. RNA coding for Kv1.5 synthesized in vitro was then injected into these oocytes. After a Kv1.5 protein expression for 1-7 days, Kv1.5 currents were measured on the oocytes using the 2-microelectrode voltage clamp technique. The Kv1.5 channels were in this case as a rule activated using voltage jumps to 0 mV and 40 mV lasting 500 ms. The bath was rinsed using a solution of the following composition: NaCl 96 mM, KCl 2 mM, CaCl2 1.8 mM, MgCl2 1 mM, HEPES 5 mM (titrated with NaOH to pH 7.4). These experiments were carried out at room temperature. The following were employed for data acquisition and analysis: Gene clamp amplifier (Axon Instruments, Foster City, USA) and MacLab D/A converter and software (ADinstruments, Castle Hill, Australia). The substances according to the invention were tested by adding them to the bath solution in different concentrations. The effects of the substances were calculated as the percentage inhibition of the Kv1.5 control current which was obtained when no substance was added to the solution. The data were then extrapolated using the Hill equation in order to determine the inhibition concentrations IC50 for the respective substances.
Regarding `CC(C)C[C@H](NC(=O)c1nccnc1-c1ccccc1CNC(=O)OC(C)(C)C)C(N)=O` [Example 11], the IC50 result is “inactive”.

For `COc1ccc(CC(=O)NCc2ccccc2-c2nccnc2C(=O)NCCc2ccccn2)cc1` [Example 53], the IC50 result was “inactive”.

Still in this experiment, the particulars now being: human Kv1.5 expressed in Xenopus laevis oocytes; voltage jumps to 0 mV and 40 mV lasting 500 ms; room temperature; Hill equation; read-out: IC50.
Turning to `COc1ccc(CC(=O)NCc2ccccc2-c2cccnc2C(=O)NCCc2ccccn2)cc1` [Example 36], the IC50 is below 100 µM.

As to `O=C(Cc1ccc(OC(F)(F)F)cc1)NCc1cnccc1-c1ccccc1C(=O)NCC1CC1` [Example 55], the IC50 was 3.8 µM.

With `CCOc1ccc(C(=O)NCc2ccccc2-c2cccnc2C(=O)Nc2ccc(OC)cc2)cc1` [Example 43], the IC50 is below 100 µM.

For `C[C@@H](O)CNC(=O)c1ncccc1-c1ccccc1CNC(=O)C(C)(C)c1ccc(Cl)cc1` [Example 65], the IC50 was below 100 µM.

Consider `O=C(NCc1ccccc1-c1ncccc1C(=O)NCc1ccc(F)cc1F)OCc1ccccc1` [Example 29], for which the IC50 worked out at 7.6 µM.

For `C[C@H](OC(=O)NCc1cnccc1-c1ccccc1C(=O)NCC1CC1)c1ccccc1` [Example 33], the IC50 turned out to be 1.7 µM.

For the compound `O=C(CCc1cccc(OC(F)(F)F)c1)NCc1ccccc1-c1cccnc1C(=O)NCCc1ccccn1` [Example 63], the IC50 was 1.8 µM.

Turning to `COc1ccc(NC(=O)c2ncccc2-c2ccccc2CNC(=O)O[C@@H](C)c2ccccc2)cc1` [Example 21], the IC50 came out at 2 µM.

As for `O=C(CCc1cccc(OC(F)(F)F)c1)NCc1ccccc1-c1cccnc1C(=O)NCCc1cccnc1` [Example 60], the IC50 amounted to 3.1 µM.

Take `COc1ccc(NC(=O)c2nccnc2-c2ccccc2CNC(=O)OC(C)(C)C)cc1` [Example 12]: the IC50 is below 100 µM.

For the compound `CC(C)CCNC(=O)c1nccnc1-c1ccccc1CNC(=O)OC(C)(C)C` [Example 7], the IC50 is below 100 µM.

For `CC(C)CCNC(=O)c1ccncc1-c1ccccc1CNC(=O)OC(C)(C)C` [Example 3], the IC50 was below 100 µM.

For `C[C@H](CC(=O)NCc1ccccc1-c1cccnc1C(=O)NCc1cccnc1)c1ccccc1` [Example 46], the IC50 came to 2.7 µM.

As for `COc1ccc(CCC(=O)NCc2ccccc2-c2cccnc2C(=O)NCCc2ccccn2)cc1` [Example 38], the IC50 was 5.6 µM.

Turning to `CC(C)CCNC(=O)c1cccnc1-c1ccccc1CNC(=O)OCc1ccccc1` [Example 28], the IC50 turned out to be 9 µM.

In the case of `Cc1onc(-c2ccccc2)c1C(=O)NCc1ccccc1-c1cccnc1C(=O)NCC1CC1` [Example 48], the IC50 came out at 2.4 µM.

For `CC(CC(=O)NCc1ccccc1-c1cccnc1C(=O)NCCc1cccnc1)c1ccc(F)cc1` (centres unmarked) [Example 59], the 50% inhibitory concentration (IC50) was found to be 3.2 µM.

For `O=C(CCc1cccc(OC(F)(F)F)c1)NCc1ccccc1-c1cccnc1C(=O)NCC1CC1` [Example 62], the IC50 came to 1.8 µM.

`C[C@H](OC(=O)NCc1ccccc1-c1cccnc1C(=O)NCC1CC1)c1ccccc1` [Example 23]: the IC50 was determined as 0.4 µM.

In the case of `COc1ccc(CCC(=O)NCc2ccccc2-c2cccnc2C(=O)N[C@@H](CC(C)C)C(N)=O)cc1` [Example 41], the IC50 was below 100 µM.

For `C[C@H](CC(=O)NCc1ccccc1-c1cccnc1C(=O)NCCc1ccccn1)c1ccccc1` [Example 49], the IC50 is 0.9 µM.

Consider `CC(C)C[C@H](NC(=O)c1ncccc1-c1ccccc1CNC(=O)O[C@@H](C)c1ccccc1)C(N)=O` [Example 20], for which the IC50 turned out to be 1.2 µM.

Turning to `C[C@@H](O)CNC(=O)c1ncccc1-c1ccccc1CNC(=O)CCc1cccc(OC(F)(F)F)c1` [Example 66], the IC50 is below 100 µM.

Turning to `CC(C)(C(=O)NCc1ccccc1-c1cccnc1C(=O)NCCc1ccccn1)c1ccc(Cl)cc1` [Example 64], the half-maximal inhibitory concentration (IC50) is 0.9 µM.

For the compound `CC(CC(=O)NCc1cnccc1-c1ccccc1C(=O)NCC1CC1)c1ccc(F)cc1` (centres unmarked) [Example 54], the IC50 is below 100 µM.

On to `COc1ccc(CC(=O)NCc2ccccc2-c2cccnc2C(=O)N[C@@H](CC(C)C)C(N)=O)cc1` [Example 39], for which the half-maximal inhibitory concentration (IC50) was below 100 µM.

Take `CC(C)(C)OC(=O)NCc1ccccc1-c1ncccc1C(=O)NCc1ccc(F)cc1F` [Example 6]: the IC50 was below 100 µM.

On to `CC(C)CCNC(=O)c1cccnc1-c1ccccc1CNC(=O)OC(C)(C)C` [Example 5], for which the IC50 is below 100 µM.

Consider `C[C@H](OC(=O)NCc1ccccc1-c1cccnc1C(=O)NCCc1ccccn1)c1ccccc1` [Example 19], for which the IC50 is 0.6 µM.

For the compound `CC(C)(C(=O)NCc1ccccc1-c1cccnc1C(=O)NCC1CC1)c1ccc(Cl)cc1` [Example 61], the IC50 is 1.7 µM.

For the compound `C[C@H](OC(=O)NCc1cnccc1-c1ccccc1C(=O)NCCc1cccnc1)c1ccccc1` [Example 34], the IC50 was determined as 4.7 µM.

For `CC(CC(=O)NCc1ccccc1-c1cccnc1C(=O)NCC1CC1)c1ccc(F)cc1` (centres unmarked) [Example 47], the IC50 amounted to 3.1 µM.

`COc1ccc(CC(=O)NCc2ccccc2-c2cccnc2C(=O)Nc2ccc(OC)cc2)cc1` [Example 42]: the IC50 was below 100 µM.

In the case of `CCOc1ccc(C(=O)NCc2ccccc2-c2cccnc2C(=O)N[C@@H](CC(C)C)C(N)=O)cc1` [Example 40], the IC50 was below 100 µM.

Regarding `CC(C)CCNC(=O)c1ccncc1-c1ccccc1CNC(=O)OCc1ccccc1` [Example 26], the IC50 is below 100 µM.

With `CC(C)(C)OC(=O)NCc1ccccc1-c1nccnc1C(=O)NCc1ccc(F)cc1F` [Example 8], the IC50 is below 100 µM.

As for `CC(C)(C)OC(=O)NCc1ccccc1-c1cnccc1C(=O)NCc1ccc(F)cc1F` [Example 4], the IC50 was below 100 µM.

As to `COc1ccc(CC(=O)NCc2ccccc2-c2ncccc2C(=O)NCc2ccc(F)cc2F)cc1` [Example 51], the IC50 is below 100 µM.

In the case of `CCOc1ccc(C(=O)NCc2ccccc2-c2cccnc2C(=O)NCCc2ccccn2)cc1` [Example 37], the IC50 was below 100 µM.

With `CC(C)CCNC(=O)c1ncccc1-c1ccccc1CNC(=O)OCc1ccccc1` [Example 18, Benzyl {2-[2-(3-methylbutylcarbamoyl)pyridin-3-yl]benzyl}carbamate], the IC50 was 2.6 µM.

With `CC(C)CCNC(=O)c1ccccc1-c1ccncc1CNC(=O)OC(C)(C)C` [Example 9], the IC50 is below 100 µM.

`O=C(Cc1ccc(OC(F)(F)F)cc1)NCc1cnccc1-c1ccccc1C(=O)NCCc1cccnc1` [Example 56]: the IC50 amounted to 6.1 µM.

Regarding `CC(C)C[C@H](NC(=O)c1nccnc1-c1ccccc1CNC(=O)O[C@@H](C)c1ccccc1)C(N)=O` [Example 31], the 50% inhibitory concentration (IC50) is below 100 µM.

For `C[C@H](CC(=O)NCc1ccccc1-c1cccnc1C(=O)NCC1CC1)c1ccccc1` [Example 35, 3-{2-(R)-[(3-Phenylbutyrylamino)methyl]phenyl}pyridine-2-carboxylate cyclopropylmethylamide], the IC50 was found to be 0.4 µM.

`COc1ccc(CCC(=O)NCc2ccccc2-c2cccnc2C(=O)Nc2ccc(OC)cc2)cc1` [Example 44]: the IC50 worked out at 6.7 µM.

For `C[C@H](OC(=O)NCc1ccccc1-c1cccnc1C(=O)NCCc1cccnc1)c1ccccc1` [Example 58], the IC50 was found to be 0.7 µM.

For the compound `C[C@H](CC(=O)NCc1ccccc1-c1cccnc1C(=O)NC[C@@H](C)O)c1ccccc1` [Example 67], the IC50 is below 100 µM.

For the compound `CC(CC(=O)NCc1ccccc1-c1cccnc1C(=O)NCCc1ccccn1)c1ccc(F)cc1` (centres unmarked) [Example 45], the IC50 came out at 0.5 µM.
